Tests used:
[1] = tested on: OVX mice; assay: ovariectomy (OVX)-induced femoral bone loss in sexually mature mice; format: in vivo, mouse; settings: C3H OVX mice, 10 mg/Kg/day subcutaneously for 4 weeks from time of operation; FIGS. 4a-g
Method: Ovariectomy (OVX) mice—C3H mice (Harlan, Israel) were subjected to an ovariectomy procedure. HU-308 was synthesized as described before [Hanus, L., et al. HU-308: a specific agonist for CB(2), a peripheral cannabinoid receptor. Proc. Natl. Acad. Sci. U.S.A. 96: 14228-142-33 (1999)] and was daily injected once subcutaneously as an ethanol/emulphor/saline (1:1:18) solution.
All reported animals received calcein flurochrome (Sigma), 15 mg/Kg intraperitoneally four days and one day prior to sacrifice. […]
Micro-computed tomography (μCT)—Whole femora were examined by μCT 40 (Scanco Medical, Bassersdorf, Switzerland). […] Trabecular bone parameters were measured in a metaphyseal segment, extending proximally from the proximal tip of the primary spongiosa to the proximal border of the distal femoral quartile. Cortical bone parameters were determined in a diaphyseal segment extending 1.12 mm distally from the midpoint between the femoral ends.
Histomorphometry and immunohistochemistry—After μCT image acquisition, the specimens were embedded undecalcified in Technovit 9100 (Heracus Kulzer, Wehrheim, Germany). […] Parameters were determined according to a standardized nomenclature [Parfitt, A. M., et al. Bone histomorphometry: standardization of nomenclature, symbols, and units. […]

[2] = tested on: bone marrow derived osteoclastic cell system; assay: count of TRAP-positive multinucleated osteoclasts in primary osteoclastogenic monocyte culture; format: cell-based, mouse; settings: osteoclastogenic monocyte culture with M-CSF and RANKL; FIG. 1g
Method: (§1) Cell cultures and mRNA analysis—Osteoclastogenic cultures of monocytes derived from femora and tibiae of WT C57BL/6J mice were set as previously reported (Zou, W., et al., 2002. FASEB J. 16: 274-282). After separation and prior to RNA extraction or cell counts the cells were cultured for 5 days in medium containing M-CSF and RANKL (R&D Systems Inc. Minneapolis, Minn.). Primary bone marrow stromal cell cultures from femoral diaphyseal bone marrow and the MC3T3 E1 cells were cultured as reported previously (Frenkel, B., et al., 1997. Endocrinology 138: 2109-2116; Bab, I., et al., 1992. EMBO J. 11: 1867-1873). The cells were grown in osteogenic medium containing ascorbic acid, β-glycerophophate and dexamethasone (Frenkel, B., et al., 1997. Endocrinology 138: 2109-2116).
(§2) In the cell count experiments, ligands were dissolved in dimethylsulfoxide and further diluted to their final concentration using tissue culture medium. For osteoclast counts the cultures were fixed in ethanol and TRAP-stained. […] The cells were then serum starved for 2 hours followed by 48 hours incubation in (α-MEM supplemented with 4% BSA and ligand. Cells were separated using chondroitinase and trypsin (Krebsbach, P. H., et al., 1998. Transplantation 66, 1272-1278) and counted with a hemocytometer in triplicate wells per condition.

[3] = tested on: tissue non-specific alkaline phosphatase (TNSALP); assay: TNSALP activity in the preosteoblastic stromal cell cultures; format: cell-based, mouse; settings: preosteoblastic stromal cell culture, early differentiation stage; data not shown
Method: as §1, §2

[4] = tested on: diaphyseal bone marrow derived stromal cells; assay: cell count of bone marrow derived stromal cells (preosteoblasts) challenged with ligand; format: cell-based, mouse; settings: cells grown for 10 days in osteogenic medium; 48 hours incubation with ligand; FIG. 1f
Method: as §1, §2

Compound: CCCCCCC(C)(C)c1cc(OC)c([C@@H]2C=C(CO)[C@@H]3C[C@H]2C3(C)C)c(OC)c1 [HU-308]
- ovariectomy (OVX)-induced femoral bone loss [1]: attenuating
- number of TRAP positive multinucleated cells [2]: marked dose dependent decrease
- activity of the tissue non-specific alkaline phosphatase (TNSALP) [3]: unaffected
- number of diaphyseal bone marrow derived stromal cells [4]: potent increase

Compound: CCCCC/C=C\C/C=C\C/C=C\C/C=C\CCCCOC(CO)CO [Noladin ether, 2-arachidonyl glyceryl ether]
- number of diaphyseal bone marrow derived stromal cells [4]: no significant effect

From patent publication US7407753B2, “Methods, kits and pharmaceutical compositions for diagnosing, delaying onset of, preventing and/or treating osteoporosis” (priority 2004, dated 2008)
